These results are taken from patent US10202340B2, “Glucosylceramide synthase inhibitors and therapeutic methods using the same” (THE REGENTS OF THE UNIVERSITY OF MICHIGAN, priority 2015, dated 2019).

pIC50: −log10 of the molar value. Counter-ions that a name gives are not always drawn. Like-named read-outs stand apart in the source and are kept apart here.

The nature of data set [1]: Mouse liver microsome stability. Type of data set: in vitro ADME. Conditions: mouse liver microsomes; read-out: Mouse liver microsome t1/2. How it is done: Selected compounds were incubated with mouse liver microsomes to assess their stability to oxidative metabolism by cytochrome P450 enzymes (Table 1).
A general note: Liver microsomes are a subcellular fraction often used to study metabolism.

In a further data set the target is GCS in WT-MDCKII cells (Canis lupus familiaris, UniProt A0A8I3MXG6). Kind of data set: Inhibition of GlcCer production in whole wild-type MDCKII cells. Type of data set: cell-based, canine. To be noted: 24 hours, read-out: WT-MDCK IC50. How it is done:
(§1) Parental (WT-)MDCKII cells and MDCKII cells retrovirally transduced with human MDR-1 cDNA were obtained from the Netherlands Cancer Institute. Both cell lines were routinely maintained in medium consisting of Opti-MEM/F12 (1:1), 5% FBS, 100 U/mL of penicillin, 100 μg/mL streptomycin and […] L-glutamine. MDCKII cells were newly thawed from frozen ampules every two months.
(§2) Stock solutions of water-insoluble glycosphingolipid inhibitors (100 mM) were prepared by dissolving each inhibitor into 100% ethanol as previously described (3). The inhibitor-ethanol solutions then were diluted 50× into 2 mM delipidated bovine serum albumin-phosphate buffered saline solution to make water-soluble glycosphingolipid inhibitor-bovine serum albumin complexes. The inhibitor-bovine serum album complexes were sterile-filtered and stored at −20° C. Prior to use, portions of the inhibitor-bovine serum albumin complexes were further diluted with Opti-F12 to make treatment solutions. Equal amounts of bovine serum albumin and ethanol were added into the control cultures. WT and MDR1-MDCKII cells (5×10^5) were seeded into 10-cm culture dishes containing 10 ml of Opti-F12 with 5% FBS.
(§3) Following inhibitor treatment, whole cellular lipids of wild type and MDR1-MDCKII cells were extracted as previously described in detail (10). Briefly, cells were washed with ice-cold phosphate buffered saline, fixed by methanol, and collected with rubber scraper. Chloroform was then added to yield a theoretical ratio of chloroform:methanol:water at 1:2:0.8 (v/v/v) to form a mono-phase. Cell debris and proteins were removed by centrifugation at 2200×g for 30 min. The supernatants were portioned by adding chloroform and 0.9% NaCl. The lower organic phases containing neutral glycosphingolipids lipids were washed with methanol and 0.9% NaCl, and subjected to base- and acid-hydrolysis (10). A portion of purified glycosphingolipids normalized to 100 nmol of total phospholipids was analyzed by high performance thin layer chromatography. The thin layer chromatography separations were processed twice. The plate pretreated with 1% sodium borate was first developed in a solvent system consisting of chloroform/methanol (98/2, v/v). After air drying, the plate was then developed in a solvent system containing chloroform/methanol/water (70/30/4, v/v/v). The levels of glucosylceramide were detected by charring with 8% cupric sulfate in 8% phosphoric acid, and quantified by densitometric scanning using ImageJ, NIH Image.

The target of the next data set is GCS in MDR1-MDCKII cells (Canis lupus familiaris, UniProt A0A8I3MXG6). Conditions: read-out: MDR1-MDCKII IC50; MDCKII cells stably expressing human MDR1, 24 hours. How it is done: as §1, §2, §3
In data set [2] the target is glucosylceramide synthase (GCS) (Canis lupus familiaris, UniProt A0A8I3MXG6). Kind of data set: GCS activity, broken cell assay (inhibition of GlcCer synthesis in broken wild-type MDCK cell preparations). To be noted: mean of n > 2 experiments. Format: biochemical, canine. How it is done:
Enzyme activity was measured as described previously (9). Madin-Darby canine kidney (MDCK) cell homogenates (120 μg of protein) were incubated with uridine diphosphate-[^3H]glucose (100,000 cpm) and liposomes consisting of 85 μg of octanoylsphingosine, 570 μg of dioleoylphosphatidylcholine, and 100 μg of sodium sulfatide in a 200 μL reaction mixture and kept for 1 h at 37° C.

For data set [3], the system named is brain glucosylceramide (GlcCer). Kind of data set: Brain glucosylceramide (GlcCer) content in WT mice. Format: in vivo, mouse. Conditions: for reduction in brain GlcCer levels / reduction of brain GlcCer levels: WT mice. The method, then: Lipid extractions of liver, kidney, and brain were performed as previously described (7). Briefly, frozen liver (about 0.5 g), two kidneys (about 0.3 g) and whole brain (about 0.4 g) were individually homogenized in sucrose buffer (250 mM sucrose, pH 7.4, 10 mM HEPES and 1 mM EDTA), at 0.2 g tissue/1 mL of sucrose buffer, with a Tri-R homogenizer. Each 0.8 mL of homogenate was mixed with 2 mL of methanol and 1 mL of chloroform, bath sonicated for 1 min and incubated at room temperature for 1 h. Tissue debris were removed by centrifugation at 2,400× gravity for 30 min. The pellets were re-extracted by mixing with 1 mL of methanol, 0.5 mL of chloroform and 0.4 mL of 0.9% NaCl (chloroform/methanol/0.9% NaCl, 1:2:0.8), incubated at room temperature for 1 h and centrifuged at 2,400× gravity for another 30 min. Two extracts were combined and mixed with 4.5 mL of chloroform and 1.2 mL of 0.9% NaCl (chloroform/methanol/0.9% NaCl, 2:1:0.8). After centrifugation at 800× gravity for 5 min, lower layer was washed with 3 mL of methanol and 2.4 mL of 0.9% NaCl. Second washing was carried with 3 mL of methanol, 2 mL of water and 0.4 mL of 0.9% NaCl followed by a 5 min centrifugation at 800× gravity. The resultant lower phase was collected and dried under a stream of N2 gas.
The analysis of neutral glycosphingolipids from mouse liver, kidney, and brain was processed after alkaline methanolysis. […] lipids were incubated with 2 mL of chloroform and 1 ml of 0.21N NaOH in methanol for 2 h (kidney) or 7.5 h (liver and brain) at RT. The lipid extract was normalized to 0.5 μmol of total phospholipid phosphate (liver and kidney) or 2 μmol of total phospholipid phosphate (brain) for high performance thin layer chromatography analysis. After alkaline methanolysis, the brain lipids were passed through a silica gel column (7). Borate-impregnated thin layer chromatography plates were developed in a two solvent system. Plates were first developed in chloroform/methanol (98:2, v/v). The plates loaded with kidney and liver lipids were then developed in chloroform/methanol/water (64:24:4, v/v/v), and brain lipids were further separated in chloroform/methanol/water (60:30:6, v/v/v). GlcCer levels were quantified by comparison to known standards.
In another test, a dose ranging study for brain glucosylceramide (GlcCer) content was performed using the compound of Example 7. FIG. 1 contains bar graphs showing the GluCer levels in treated and untreated WT mouse brain at low doses for 3 days (FIG. 1A) and high doses for 3 days (FIG. 1B). […] FIG. 1C compares the GlcCer levels in treated and untreated WT mouse brain for 7 days comparing oral gavage vs. IP injection. […] FIG. 2 contains comparative brain GlcCer level data obtained with the Control Compound, dosed at 10 mg/kg IP (FIG. 2A) or 60 mg/kg IP (FIG. 2B) in WT mice for 3 days.

Data set [4] can be described thus: Brain and plasma drug levels after single oral dose in CD-1 mice. Type of data set: in vivo, mouse.
Setting [5] is: mouse, brain, single 20 mg/kg PO, female CD-1 mice, read-out: Drug level in brain.
Setting [6] is: mouse, plasma, single 20 mg/kg PO, female CD-1 mice, read-out: Drug level in plasma.
[7] abbreviates: mouse, plasma, single 20 mg/kg PO, female CD-1 mice, 7 hrs, read-out: Drug level in plasma.

Chain of GCS in MDR1-MDCKII cells (A0A8I3MXG6 1-394): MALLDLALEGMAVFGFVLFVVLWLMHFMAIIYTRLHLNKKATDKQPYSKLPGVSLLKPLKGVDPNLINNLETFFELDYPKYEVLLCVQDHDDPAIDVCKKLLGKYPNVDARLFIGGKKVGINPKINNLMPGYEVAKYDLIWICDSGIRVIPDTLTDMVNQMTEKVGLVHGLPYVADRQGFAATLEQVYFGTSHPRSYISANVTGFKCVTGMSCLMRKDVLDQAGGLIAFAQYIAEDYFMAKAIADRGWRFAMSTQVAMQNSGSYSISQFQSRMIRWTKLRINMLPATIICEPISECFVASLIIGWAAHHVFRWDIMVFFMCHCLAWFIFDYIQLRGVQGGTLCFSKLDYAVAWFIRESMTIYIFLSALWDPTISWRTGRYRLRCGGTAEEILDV
Chain of GCS in WT-MDCKII cells (A0A8I3MXG6 1-394): as above
Chain of glucosylceramide synthase (GCS) (A0A8I3MXG6 1-394): as above

For `COc1cccc([C@@H](O)[C@@H](CN2CCCC2)NC(=O)CC2Cc3ccccc3C2)c1` [Example 3, 2-(2,3-dihydro-1H-inden-2-yl)-N-((1R,2R)-1-hydroxy-1-(3-methoxyphenyl)-3-(pyrrolidin-1-yl)propan-2-yl)acetamide], in data set [1], the half-life turned out to be 4 min.

The term pIC50 denotes the negative decadic logarithm of the IC50, by convention in mol/L. With `COc1ccccc1[C@@H](O)[C@@H](CN1CCCC1)NC(=O)CC1Cc2ccccc2C1` [Example 4, 2-(2,3-dihydro-1H-inden-2-yl)-N-((1R,2R)-1-hydroxy-1-(2-methoxyphenyl)-3-(pyrrolidin-1-yl)propan-2-yl)acetamide], the pIC50 at GCS in WT-MDCKII cells was 8.30; on GCS in MDR1-MDCKII cells it was 7.25; in data set [2], 7.36.

For the compound `O=C(CC1Cc2ccccc2C1)N[C@H](CN1CC[C@@H](F)C1)[C@H](O)c1ccc(OC(F)(F)F)cc1` [Example 16, 2-(2,3-dihydro-1H-inden-2-yl)-N-((1R,2R)-3-((R)-3-fluoropyrrolidin-1-yl)-1-hydroxy-1-(4-(trifluoromethoxy)phenyl)propan-2-yl)acetamide], the pIC50 at GCS in WT-MDCKII cells was 7.64; on GCS in MDR1-MDCKII cells, 7.33; in data set [2] it was < 6.52.

Take `O=C(CC1Cc2ccccc2C1)N[C@H](CN1CCCC1)[C@H](O)c1ccc(OCC2CC2)cc1` [Example 11, N-((1R,2R)-1-(4-(cyclopropylmethoxy)phenyl)-1-hydroxy-3-(pyrrolidin-1-yl)propan-2-yl)-2-(2,3-dihydro-1H-inden-2-yl)acetamide]: the pIC50 at GCS in WT-MDCKII cells was 9.00; at GCS in MDR1-MDCKII cells it was 9.08; in data set [2], 7.34.

Take `O=C(CC1Cc2ccccc2C1)N[C@H](CN1CCC1)[C@H](O)c1ccc(OC(F)(F)F)cc1` [Example 17, N-((1R,2R)-3-(azetidin-1-yl)-1-hydroxy-1-(4-(trifluoromethoxy)phenyl)propan-2-yl)-2-(2,3-dihydro-1H-inden-2-yl)acetamide]: the half-life in data set [1] is > 60 min.

As to `O=C(CC1Cc2ccccc2C1)N[C@H](CN1CCCC1)[C@H](O)c1ccc(OCC(F)(F)F)cc1` [Example 12, 2-(2,3-dihydro-1H-inden-2-yl)-N-((1R,2R)-1-hydroxy-3-(pyrrolidin-1-yl)-1-(4-(2,2,2-trifluoroethoxy)phenyl)propan-2-yl)acetamide], in data set [1], the half-life is 11 min.

Take `COc1ccc([C@@H](O)[C@@H](CN2CCCC2)NC(=O)CC2Cc3ccccc3C2)cc1F` [Example 1, 2-(2,3-dihydro-1H-inden-2-yl)-N-((1R,2R)-1-(3-fluoro-4-methoxyphenyl)-1-hydroxy-3-(pyrrolidin-1-yl)propan-2-yl)acetamide]: the half-life in data set [1] is 2.7 min.

On to `O=C(CC1Cc2ccccc2C1)N[C@H](CN1CCCC1)[C@H](O)c1ccc(OC(F)(F)F)cc1` [Example 7, 2-(2,3-dihydro-1H-inden-2-yl)-N-((1R,2R)-1-hydroxy-3-(pyrrolidin-1-yl)-1-(4-(trifluoromethoxy)phenyl)propan-2-yl)acetamide], for which the “reduction in brain GlcCer levels” value is “Near maximal reduction” in data set [3] (1 mg/kg IP, 3 days) and “significant reductions” in data set [3] (oral dosing at 10 mg/kg, 7 days). Besides, in data set [3] (1 mg/kg IP, 3 days), the “reduction of brain GlcCer levels” value stood at 35%. In addition, the concentration at 1 h was found to be 193 ng/g in data set [4] (setting [5]) and 463 ng/g in data set [4] (setting [6]). The concentration at 7 h in data set [4] (mouse, brain, single 20 mg/kg PO, female CD-1 mice, 7 hrs, read-out: Drug level in brain) worked out at 68 ng/g; in data set [4] (setting [7]) it was 52 ng/g. For the same compound, the half-life in data set [1] is 37 min.

On to `O=C(CC1Cc2ccccc2C1)N[C@H](CN1CCCC1)[C@H](O)c1cccc(OC(F)(F)F)c1` [Example 14, 2-(2,3-dihydro-1H-inden-2-yl)-N-((1R,2R)-1-hydroxy-3-(pyrrolidin-1-yl)-1-(3-(trifluoromethoxy)phenyl)propan-2-yl)acetamide], for which the pIC50 on GCS in WT-MDCKII cells was 7.30.

Regarding `COc1ccc([C@@H](O)[C@@H](CN2CCCC2)NC(=O)CC2Cc3ccccc3C2)cc1` [Example 2, 2-(2,3-dihydro-1H-inden-2-yl)-N-((1R,2R)-1-hydroxy-1-(4-methoxyphenyl)-3-(pyrrolidin-1-yl)propan-2-yl)acetamide], the half-life in data set [1] came out at 5.5 min.

Consider `O=C(CC1Cc2ccccc2C1)N[C@H](CN1CCCC1)[C@H](O)c1ccc2c(c1)OCCO2` [control], for which the “reduction of brain GlcCer levels” value in data set [3] (60 mg/kg IP, 3 days) was 17%. The figures for the pIC50 on GCS in WT-MDCKII cells and on GCS in MDR1-MDCKII cells were 7.82 and 7.62, respectively. In addition, the Kp at 1 h in data set [4] (female, mouse, brain/plasma, 20 mg/kg, single oral dose, CD-1 mice, at one hour, read-out: brain/plasma ratio) turned out to be 0.25. The concentration at 1 h in data set [4] (setting [5]) was found to be 5 ng/g; in data set [4] (setting [6]), 20 ng/g. The concentration at 7 h in data set [4] (setting [7]) amounted to 9 ng/g. In addition, the “Drug level in brain” value in data set [4] (single 20 mg/kg PO, female CD-1 mice, 7 hrs) is “BLQ*”. The half-life in data set [1] is 1.5 min.

On to `CCCCCCCC(=O)N[C@H](CN1CCCC1)[C@H](O)c1ccc2c(c1)OCCO2` [eliglustat tartrate, N-((1R,2R)-1-(2,3-dihydrobenzo-[b][1,4]dioxin-6-yl)-1-hydroxy-3-(pyrrolidin-1-yl)propan-2-yl)octanamide, reference compound], for which the “decrease in brain glucosylceramide content” value in data set [3] (mice, intraperitoneal administration for 3 days) is reported as “not seen”.
